Legend:
[1] = test system: neutrophil/P-selection-dependent rat model; settings: cited from earlier work; for lung injury / tissue accumulation of neutrophils: intravenous infusion of up to 200 μg, cobra venom
[2] = test system: L-selectin; assay: Inhibition of L-selectin; format: binding
[3] = test system: P-selectin; assay: Inhibition of P-selectin; format: binding
[4] = molecular target: T1, E-selectin (Homo sapiens, UniProt P16581); assay: Inhibition of SLe^x glycoconjugate / HL-60 cell binding to immobilized sol-E-selectin
T1 construct: A 1.67 kbp DNA fragment encoding a truncated structural gene for E-selectin; made in house
T1 sequence (P16581 22-556 limits assumed): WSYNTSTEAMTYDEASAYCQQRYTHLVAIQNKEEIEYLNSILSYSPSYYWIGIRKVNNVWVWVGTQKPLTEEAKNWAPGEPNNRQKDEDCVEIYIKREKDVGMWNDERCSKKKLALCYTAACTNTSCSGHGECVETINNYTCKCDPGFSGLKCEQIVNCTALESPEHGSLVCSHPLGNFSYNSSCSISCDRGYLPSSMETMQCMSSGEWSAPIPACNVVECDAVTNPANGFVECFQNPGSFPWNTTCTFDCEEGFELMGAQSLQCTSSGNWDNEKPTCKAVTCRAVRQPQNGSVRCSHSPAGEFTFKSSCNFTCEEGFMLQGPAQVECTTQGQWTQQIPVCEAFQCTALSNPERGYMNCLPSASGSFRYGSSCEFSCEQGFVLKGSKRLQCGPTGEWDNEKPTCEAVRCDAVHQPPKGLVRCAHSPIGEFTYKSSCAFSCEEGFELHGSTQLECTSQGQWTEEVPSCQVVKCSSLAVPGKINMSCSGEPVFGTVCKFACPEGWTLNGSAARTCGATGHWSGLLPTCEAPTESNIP
Procedure: Analysis of compound 6 (class II compound; FIG. 1) as an inhibitor of SLe^x glycoconjugate binding to E-selectin provides an IC50 value of 0.8 mM, according to the method of S. A. DeFrees, et al., viz. J. Am. Chem. Soc. 1995, 117, 66.
A soluble form of E-selectin (sol-E-selectin) was prepared for inhibition assays of the SLe^x Mimetics. A 1.67 kbp DNA fragment encoding a truncated structural gene for E-selectin was isolated by PCR amplification of CDNA derived from messenger RNA that was isolated from IL-1 activated human endothelial cells. The CDNA was subcloned into the vector pBluescript II and was transfected into 293 cells. The clones were screened for the production of sol-E-selectin, and the clone 293#3 was selected as the stable cell line that produced the greatest amount of sol-E-selectin per cell. Sol-E-selectin was produced on a large scale from this line using a Nunc cell factory. Recombinant sol-E-selectin was isolated from the media using immunoaffinity chromatography.
The SLe^x Mimetics were assayed for ability to block the adhesion of HL-60 cells to immobilized sol-E-selectins (either on a polymeric column solid support or onto the surface of the assay vessle). Immobilized E-selectin was incubated first with inhibitor and then with HL-60 cells. The bound cells were lysed, and myeloperoxidase released from the bound cells was detected with o-phenylenediamine and hydrogen peroxide. The percentage inhibition was determined by comparing the absorbance of the resulting solution at 492 nm to that in wells containing no inhibitor.
Each data point in the E-selectin assay is a direct measure of cells bound using a quantitative enzyme assay. The values were then plotted to give the titration curve and IC50 values. On average, five assays were performed for each inhibitor, and the results were highly reproducible. […] The IC50 values reported here is derived from all the data. Procedure described herein is adopted from Wong et. al. J. Am. Chem. Soc. 1995, 177, 66-79.

[5] = blood stream; glycosidase; cited from earlier work
[6] = cited from earlier work
[7] = test system: E-selectin; settings: in vitro; cited from earlier work
[8] = test system: lung injury in rats; settings: in vivo, read-out: IC50 value in vivo for protecting against lung injury; cited from earlier work
[9] = test system: E-selectin; settings: cited from earlier work
[10] = test system: adhesion of neutophils to endothelial cells; settings: cited from earlier work

Compound	lung injury [1]	tissue accumulation of neutrophils [1]	inhibition of L-selectin ([2]; @ 3 mM) [%]	L-selectin inhibition activity compared with sialyl Lewis X ([2]; compared with sialyl lewis X)	inhibition of P-selectin ([3]; @ 3 mM) [%]	P-selectin inhibition activity compared with sialyl Lewis X ([3]; compared with sialyl lewis X)	IC50 [4] [µM]	biological activity compared with SLe^x ([4]; compared with SLe^x (0.50 mM))	stability in the blood [5]	oral activity [6]	affinity for E-selectin [7]	IC50 [8] [µM]	SLe^x/E-selectin interaction [9]	adhesion of neutrophils to endothelial cells [10]	effective intravenous concentration ([1]; calculated from concentrations used, 200 μg)
NeuAcα2→3Galβ1→4(Fucα1→3)GlcNAcβ1, 3Galβ- [pentamer]	dramatically reduced lung injury	diminished tissue accumulation of neutrophils	–	–	–	–	–	–	–	–	–	–	–	–	–
O=C(COP(=O)(O)O)[C@@H](O)[C@H](O)C[C@H]1O[C@H](CO)[C@@H](O)[C@H](O)[C@@H]1O [Compound 6]	–	–	> 80	better or equal to that of sialyl lewis X	> 80	better or equal to that of sialyl lewis X	800	almost the same biological activity as SLe^x	–	–	–	–	–	–	–
CC(=O)NC1C(O)CC(OC2C(O)C(CO)OC(OC3C(CO)OC(O)C(NC(C)=O)C3OC3OC(C)C(O)C(O)C3O)C2O)(C(=O)O)OC1C(O)C(O)CO (stereo not drawn) [SLe^x, NeuAcα2→3Galβ1→4(Fucα1→3GlcNAc]	dramatically reduced lung injury	diminished tissue accumulation of neutrophils	–	–	–	–	500	–	unstable in the blood stream	orally inactive	relatively weak	~1	inhibits the SLe^x /E-selectin interaction	blocks adhesion of neutophils to endothelial cells	less than 1 μM
